Experimental data taken from patent US7647217B2, “Structure of the farnesoid X receptor ligand binding domain and methods of use therefor” (The Salk Institute for Biological Studies, priority 2002, dated 2010).
“And” between values parts separate entries of the source, which are not always exact repeats. Equal entries are not always repeated.

Assays:
[1] = biological target: T1, mouse FXR (Mus musculus, UniProt Q60641); assay: CV-1 transient transfection assay with natural promoters of FXR targets (hIBABP, hPLTP, hMRP-2); format: cell-based; conditions: for activation of IBABP promoter: hIBABP promoter; for concentration of maximum efficacy / activity on natural promoters: hIBABP, hPLTP, hMRP-2 promoters
T1 construct: expressed in transfected cells; host or cells: CV-1 (monkey)
T1 sequence (Q60641 1-488): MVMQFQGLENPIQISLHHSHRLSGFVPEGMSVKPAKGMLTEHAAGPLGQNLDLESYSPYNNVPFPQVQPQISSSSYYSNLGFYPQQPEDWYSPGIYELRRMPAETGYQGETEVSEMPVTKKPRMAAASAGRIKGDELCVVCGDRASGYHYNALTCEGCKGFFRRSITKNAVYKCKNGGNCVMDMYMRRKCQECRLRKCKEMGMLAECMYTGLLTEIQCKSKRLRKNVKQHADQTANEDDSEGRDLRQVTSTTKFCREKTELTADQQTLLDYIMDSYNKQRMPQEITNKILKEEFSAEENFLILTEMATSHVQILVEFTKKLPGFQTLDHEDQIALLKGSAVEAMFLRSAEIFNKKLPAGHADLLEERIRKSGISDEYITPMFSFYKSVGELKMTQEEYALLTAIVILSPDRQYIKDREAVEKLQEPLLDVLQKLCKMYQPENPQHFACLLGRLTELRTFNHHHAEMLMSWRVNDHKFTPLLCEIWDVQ
T1 sequence (P19793 1-462 partner): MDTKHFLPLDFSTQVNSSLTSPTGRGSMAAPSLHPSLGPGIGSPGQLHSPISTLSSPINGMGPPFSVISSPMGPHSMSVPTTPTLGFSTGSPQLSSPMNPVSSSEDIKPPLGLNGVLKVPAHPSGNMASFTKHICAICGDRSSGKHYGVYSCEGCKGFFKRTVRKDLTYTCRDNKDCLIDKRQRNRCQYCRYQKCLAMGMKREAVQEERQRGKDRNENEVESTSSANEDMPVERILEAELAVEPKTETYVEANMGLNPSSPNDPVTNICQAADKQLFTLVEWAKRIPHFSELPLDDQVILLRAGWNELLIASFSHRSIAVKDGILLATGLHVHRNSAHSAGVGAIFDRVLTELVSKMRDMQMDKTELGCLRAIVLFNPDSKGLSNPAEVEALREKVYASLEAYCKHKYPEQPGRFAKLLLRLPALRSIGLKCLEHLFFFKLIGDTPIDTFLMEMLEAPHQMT
Procedure: FIGS. 2A-2F collectively show the results of ligand activation of CV-1 cells co-transfected with FXR constructs pCMX-mFXR and pCMX-hRXR and a luciferase reporter gene containing various promoters as follows: FIG. 2A with a minimal TK promoter, FIG. 2B with a TK-ECRE*6 promoter, FIG. 2C with a TK-ER8*2 promoter, FIG. 2D with HIBABP promoter, FIG. 2E with a hPLTP promoter, or FIG. 2 with a FhMRP-2 promoter.
(§1) For transfection of these constructs, monkey CV-1 HEPG2 and HEK293T cells were grown in DMEM supplemented with 10% FBS, 50 U/ml penicillin G, and 50 μg/ml streptomycin sulfate at 37° C. in 7% CO2. CV-1 cells (60%-70% confluence, 48-well plate) were cotransfected with 16.6 ng of the appropriate expression vector, 100 ng of reporter plasmid, and 100 ng of pCMX-LacZ in 200 μl of DMEM containing 10% FBS by the N-[1-(2,3-dioleoyloxy)propyl]-N,N,N-trimethylammonium methylsulfate (DOTAP)-mediated procedure. After 24 hr, the medium was replaced, and cells were harvested and assayed for luciferase activity 36-48 hr after transfection. The luciferase activity was normalized to the level of β-galactosidase activity. Each transfection was performed in triplicate and repeated at least three times.
For this study, the following gene promoters were used: intestinal bile acid binding protein (IBABP; see, for example, Grober et al. (1999). Identification of a bile acid-responsive element in the human ileal bile acid-binding protein gene. Involvement of the farnesoid X receptor/9-is-retinoic acid receptor heterodimer. J Biol Chem. 274(42), 29749-54>, phospholipid transfer protein (PLTP) (Urizar et al (2000). The farnesoid X-activated receptor mediates bile acid activation of phospholipid transfer protein gene expression. J Biol Chem. 275(50), 39313-7) and multidrug resistance related protein 2 (MRP-2) (Kast et al. (2002), supra), which are all well characterized targets of FXR. The natural promoters of both the IBABP and PLTP genes contain one copy of an inverted repeat with a one base spacing (IR-1) while MRP-2 contains an ER-8 element. […] The most robust activation (28-fold) was seen on the IBABP promoter. Less robust (2-3 fold) but specific activation was observed on the PLTP and MRP-2 promoters.

[2] = biological target: T2, FXR (Mus musculus, UniProt Q60641); assay: Cell-based screen: full-length FXR expression vector co-transfected with hormone response element luciferase reporter; conditions: FXR agonist activity
T2 construct: expression vector containing the full-length FXR receptor; expressed in transfected cells
T2 sequence (Q60641 1-488): T1 sequence (Q60641 1-488)
T2 sequence (P19793 1-462 partner): T1 sequence (P19793 1-462 partner)
Procedure: as §1
To discover novel small molecule ligands for FXR, a constructed combinatorial library of approximately 10 000 benzopyran compounds was screened using a cell-based assay in a 384 well format (Nicolaou et al. (2000). Natural product-like combinatorial libraries based on privileged structures. 1. General principles and solid-phase synthesis of benzopyrans. J. Am. Chem. Soc. 122, 9939-9953; Natural product-like combinatorial libraries based on privileged structures. 2. Construction of a 10000-membered benzopyran library by directed split-and-pool chemistry using nanokans and optical encoding. J. Am. Chem. Soc. 122, 9954-9967; and Natural product-like combinatorial libraries based on privileged structures. 3. The “libraries from libraries” principle for diversity enhancement of benzopyran libraries. J. Am. Chem. Soc. 122, 9968-9976). This cell-based screen was based on the co-transfection of an expression vector containing the full-length FXR receptor with a reporter vector. The reporter vector contains a hormone response element under a minimal eukaryotic promoter driving a luciferase reporter gene. […] Lead compounds were re-tested and checked for cross-reactivity for the retinoid X receptor (RXR), the heterodimeric partner of FXR. None of the identified compounds had the ability to bind or activate RXR.
Systematic optimization of regions I and II of the prototypical structure through multiple rounds of screening using smaller “focused” chemical libraries defined the requisite features of these domains for high affinity binding to FXR. […] This intelligence gathering was then used to design and synthesize on a solid support a focused library of 94 new compounds for further optimization.

| activation of IBABP promoter [1] [fold] | concentration of maximum efficacy [1] [µM] | EC50 [2] | activity on natural promoters [1] | Structure (SMILES) |
| --- | --- | --- | --- | --- |
| – | – | 377 nM | little or no activity | COC(=O)/C=C/c1cccc(N(Cc2ccc(-c3ccccc3OC)cc2)C(=O)C(C)C)c1 [SRI-1] |
| – | – | 343 nM | little or no activity | COC(=O)/C=C/c1cccc(N(Cc2ccc(-c3ccc(C(C)(C)C)cc3)cc2)C(=O)C(C)C)c1 [SRI-2] |

The next lines start with the molecule.

| Structure (SMILES) | activation of IBABP promoter [1] [fold] | concentration of maximum efficacy [1] [µM] | EC50 [2] | activity on natural promoters [1] |
| --- | --- | --- | --- | --- |
| COC(=O)/C=C/c1cccc(N(Cc2ccc(-c3ccc(N(C)C)cc3)cc2)C(=O)C2CCCCC2)c1 [fexaramine] | 28 | 1 | 25 nM | – |
| COC(=O)/C=C/c1cccc(N(Cc2ccc(/C=C/c3ccccc3)cc2)C(=O)C2CCCCC2)c1 [fexarene] | 28 | 1 | 36 nM | – |
| COC(=O)/C=C/c1cccc(N(Cc2ccc(-c3ccc4c(c3)OCO4)cc2)C(=O)C2CCCCC2)c1 [fexarine] | 28 | 1 | 38 nM | – |
| CC(C)c1onc(-c2c(Cl)cccc2Cl)c1COc1ccc(/C=C/c2cccc(C(=O)O)c2)c(Cl)c1 [GW4064, reference compound] | 28 | 1 | ~90 nM and 80 nM | – |
